# Assay results: article PMC8464850, “Sulfonium Ligands of the α7 nAChR” (Molecules, 2021)
# What was measured:
# Format in all cases: cell-based
# [1] = target: T1, human α7 receptors (Homo sapiens, UniProt P36544); experiment: Activation of human α7 receptors expressed in Xenopus oocytes, compounds applied alone (two-electrode voltage clamp, net charge); conditions: for ability to activate α7 when applied alone: 100 µM
# T1 construct: expressed in transfected cells; host or cells: Xenopus laevis oocytes (injected RNA)
# T1 sequence (P36544 23-502): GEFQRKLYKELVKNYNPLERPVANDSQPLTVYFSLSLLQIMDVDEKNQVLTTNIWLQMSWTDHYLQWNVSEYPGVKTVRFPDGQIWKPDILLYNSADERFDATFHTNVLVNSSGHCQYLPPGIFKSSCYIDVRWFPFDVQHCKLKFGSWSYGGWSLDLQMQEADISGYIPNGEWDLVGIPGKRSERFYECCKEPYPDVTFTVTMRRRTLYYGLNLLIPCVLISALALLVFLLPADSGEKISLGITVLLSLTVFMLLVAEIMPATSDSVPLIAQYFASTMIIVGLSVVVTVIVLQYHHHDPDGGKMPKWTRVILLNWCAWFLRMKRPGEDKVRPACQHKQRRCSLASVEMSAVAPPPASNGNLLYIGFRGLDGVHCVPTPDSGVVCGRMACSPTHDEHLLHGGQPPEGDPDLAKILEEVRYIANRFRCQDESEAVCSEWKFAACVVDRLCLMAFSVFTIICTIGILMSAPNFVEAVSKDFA
# Experimental: The sulfonium compounds (Figure 1) were evaluated for their ability to activate human α7 receptors expressed in Xenopus oocytes (Figure 2A). Responses were measured as net charge. […] The average net-charge response to 100 µM S1 was 47 ± 6% of the control responses to 60 µM ACh from the same cells.
# Figure 2 Responses of α7 nAChR to sulfonium compounds. (A) Net-charge responses to the applications of the test compounds applied at 100 µM. Net charge was calculated as the integrated area of inward current over a 120 s interval following the 30 s-pre-application period used to establish an initial baseline. […] (B) Averaged net-charge responses (±SEM, n = 8) to applications of S1 across a range of concentrations. Responses were measured relative to preceding 60 µM ACh control responses and then adjusted for the difference between ACh controls and ACh maximum responses. See text for curve-fit values.
# (§1) The human nAChR clones were obtained from Jon Lindstrom (University of Pennsylvania, Philadelphia, PA, USA). Mouse muscle subunit clones were obtained from Jim Boulter (Salk Institute, La Jolla, CA, USA) and Paul Gardner (Dartmouth, Hanover, NH, USA). The human resistance-to-cholinesterase 3 (RIC3) clone was obtained from Millet Treinin (Hebrew University, Jerusalem, Israel) and co-injected with α7 to improve the level and speed of α7 receptor expression without affecting the pharmacological properties of the receptors. Subsequent to linearization and purification of the plasmid DNAs, RNAs were prepared using the mMessage mMachine in vitro RNA transcription kit (Ambion, Austin, TX, USA).
# Oocytes were surgically removed from mature female Xenopus laevis frogs (Nasco, Ft. Atkinson, WI, USA) as previously described. Frogs were maintained in the Animal Care Service facility of the University of Florida, and all procedures were approved by the University of Florida Institutional Animal Care and Use Committee (approval number 202002669).
# Experiments were conducted using OpusXpress 6000A (Molecular Devices, Union City, CA, USA). Both the voltage and current electrodes were filled with 3 M KCl. Oocytes were voltage-clamped at −60 mV at room temperature (24 °C). The oocytes were bath-perfused with Ringer’s solution (115 mM NaCl, 2.5 mM KCl, 1.8 mM CaCl2, 10 mM HEPES, and 1 μM atropine, pH 7.2) at 2 mL/min for α7 receptors, or 4 mL/min for heteromeric nAChR. To evaluate the effects of experimental compounds, responses were compared to control ACh-evoked responses, defined as the average of two initial applications of ACh made before test applications. ACh control concentrations were 60 µM for α7 receptors; 100 µM for α4(3)β2(2) and α3β4 receptors; 30 µM for α4β2α6β2β3 and muscle-type (αβ1εδ) receptors; and 10 µM for α4(3)β2(2) and α4(2)β2(2)α5 receptors.
# Solutions were applied from 96-well plates via disposable tips. Drug applications were 12 s in duration, followed by 181 s washout periods for α7 receptors, or 6 s in duration followed by 301 s washout periods for heteromeric nAChR. The responses were calculated as both peak current amplitudes and net charge, as previously described. Data were collected at 50 Hz, filtered at 20 Hz for α7 receptors or filtered at 5 Hz for heteromeric nAChR, and analyzed by Clampfit (Molecular Devices, San Jose, CA, USA) and Excel (Microsoft, Redmond, WA, USA). Data were expressed as means ± SEM from at least four oocytes for each experiment and plotted with Kaleidagraph 4.5.2 (Abelbeck Software, Reading, PA, USA). Multi-cell averages were calculated for comparisons of complex responses. Averages of the normalized data were calculated for each of the 10,322 points in each of the 206.44 s traces (acquired at 50 Hz), as well as the standard errors for those averages.
# [2] = target: T2, α4(2)β2(3) (Homo sapiens, UniProt P17787+P43681); experiment: Activation of heteromeric nAChR by S1: α4(2)β2(3)
# T2 construct: expressed in transfected cells; host or cells: Xenopus laevis oocytes (injected RNA)
# T2 sequence (P17787 26-502): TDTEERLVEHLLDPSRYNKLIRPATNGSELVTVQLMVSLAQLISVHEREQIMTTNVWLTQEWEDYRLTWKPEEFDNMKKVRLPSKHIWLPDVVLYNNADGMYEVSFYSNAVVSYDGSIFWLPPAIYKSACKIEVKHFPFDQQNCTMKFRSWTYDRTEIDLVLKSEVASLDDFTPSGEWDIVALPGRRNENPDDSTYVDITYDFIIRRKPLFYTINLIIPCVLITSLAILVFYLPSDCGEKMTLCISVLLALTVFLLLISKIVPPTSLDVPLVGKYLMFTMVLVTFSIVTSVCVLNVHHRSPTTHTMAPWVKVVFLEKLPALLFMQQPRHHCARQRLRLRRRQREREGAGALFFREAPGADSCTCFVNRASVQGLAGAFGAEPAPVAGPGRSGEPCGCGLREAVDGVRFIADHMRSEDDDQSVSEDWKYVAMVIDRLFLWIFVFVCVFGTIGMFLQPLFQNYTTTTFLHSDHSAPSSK
# T2 sequence (P43681 29-627 limits assumed): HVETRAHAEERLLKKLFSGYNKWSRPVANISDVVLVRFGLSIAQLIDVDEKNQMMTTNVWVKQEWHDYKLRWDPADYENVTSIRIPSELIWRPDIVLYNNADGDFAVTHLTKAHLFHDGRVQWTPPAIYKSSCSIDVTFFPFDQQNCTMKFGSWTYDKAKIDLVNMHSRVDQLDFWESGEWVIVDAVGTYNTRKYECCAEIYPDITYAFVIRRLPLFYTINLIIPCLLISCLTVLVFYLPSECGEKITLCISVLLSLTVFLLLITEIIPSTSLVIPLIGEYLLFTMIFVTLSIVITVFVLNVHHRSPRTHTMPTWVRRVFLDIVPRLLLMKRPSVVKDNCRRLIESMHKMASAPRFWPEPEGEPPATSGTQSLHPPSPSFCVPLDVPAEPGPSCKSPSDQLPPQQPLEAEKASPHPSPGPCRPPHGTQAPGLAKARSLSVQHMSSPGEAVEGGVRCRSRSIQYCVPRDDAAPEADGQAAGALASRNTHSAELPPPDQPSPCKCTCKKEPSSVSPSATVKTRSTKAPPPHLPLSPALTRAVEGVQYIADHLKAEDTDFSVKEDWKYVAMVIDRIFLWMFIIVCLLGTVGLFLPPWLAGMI
# T2 sequence (P17787 26-502): as the sequence (P17787 26-502) above
# Description: (§2) Concatamers were used in order to obtain heteromeric receptors with known subunit composition. The β2-6-α4 concatamer was co-expressed with monomeric α4, β2, or α5 to obtain receptors with the composition α4(3)β2(2), α4(2)β2(3), or α4(2)β2(2)α5, respectively. A concatamer of five linked subunits was used to obtain the β3α4 β2α6β2 receptors. The α3β4 receptors were formed from the co-expression of α3 and β4 subunit monomers at equal ratios. Note that the data were initially measured relative to internal ACh control responses for each oocyte (Methods). Responses were subsequently adjusted for the relative values of the ACh controls and the ACh maximum responses for each of the various subtypes, determined in previous experiments.
# (§3) Figure 6 Activation of heteromeric neuronal nAChR by S1. […] Data are the average peak currents (n = 6–8 oocytes ± SEM), measured relative to initial ACh control responses for each oocyte (concentrations listed in Methods). Responses were subsequently adjusted for the relative values of the ACh controls and the ACh maximum responses for each of the various subtypes, determined in previous experiments. […]
# (§4) Solutions were applied from 96-well plates via disposable tips. […] The responses were calculated as both peak current amplitudes and net charge, as previously described. […] Multi-cell averages were calculated for comparisons of complex responses. […]
# [3] = target: T3, α4(3)β2(2) (Homo sapiens, UniProt P17787+P43681); experiment: Activation of heteromeric nAChR by S1: α4(3)β2(2)
# T3 construct: expressed in transfected cells; host or cells: Xenopus laevis oocytes (injected RNA)
# T3 sequence (P17787 26-502): as above
# T3 sequence (P43681 29-627 limits assumed): as the sequence (P43681 29-627 limits assumed) above
# T3 sequence (P43681 29-627 limits assumed): as above
# Description: as §2, §3, §4
# [4] = target: T4, β3α4 β2α6β2 (Homo sapiens, UniProt P17787+P43681+Q15825); experiment: Activation of heteromeric nAChR by S1: β3α4β2α6β2 concatamer
# T4 construct: expressed in transfected cells; host or cells: Xenopus laevis oocytes (injected RNA)
# T4 sequence (P43681 29-627 limits assumed): as above
# T4 sequence (P17787 26-502): as the sequence (P17787 26-502) above
# T4 sequence (Q15825 26-494): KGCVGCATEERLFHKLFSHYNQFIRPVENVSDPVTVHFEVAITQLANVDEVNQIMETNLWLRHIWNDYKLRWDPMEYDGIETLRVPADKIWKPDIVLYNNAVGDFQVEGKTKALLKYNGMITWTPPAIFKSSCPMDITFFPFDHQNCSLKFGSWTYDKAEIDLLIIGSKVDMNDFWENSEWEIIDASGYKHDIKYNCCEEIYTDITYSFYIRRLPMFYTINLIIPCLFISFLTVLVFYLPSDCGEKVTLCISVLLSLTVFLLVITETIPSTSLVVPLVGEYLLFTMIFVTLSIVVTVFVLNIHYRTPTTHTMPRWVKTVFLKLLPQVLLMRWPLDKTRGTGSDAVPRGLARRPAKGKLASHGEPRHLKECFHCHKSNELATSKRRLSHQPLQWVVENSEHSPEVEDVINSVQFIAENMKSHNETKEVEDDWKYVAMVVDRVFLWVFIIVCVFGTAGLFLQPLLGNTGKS
# Description: as §2, §3, §4
# [5] = target: T5, muscle-type (α1β1εδ) receptors (Mus musculus, UniProt P02716+P04756+P20782); experiment: Activation of muscle-type receptors; conditions: not shown
# T5 construct: expressed in transfected cells; host or cells: Xenopus laevis oocytes (injected RNA)
# T5 sequence (P04756 21-457): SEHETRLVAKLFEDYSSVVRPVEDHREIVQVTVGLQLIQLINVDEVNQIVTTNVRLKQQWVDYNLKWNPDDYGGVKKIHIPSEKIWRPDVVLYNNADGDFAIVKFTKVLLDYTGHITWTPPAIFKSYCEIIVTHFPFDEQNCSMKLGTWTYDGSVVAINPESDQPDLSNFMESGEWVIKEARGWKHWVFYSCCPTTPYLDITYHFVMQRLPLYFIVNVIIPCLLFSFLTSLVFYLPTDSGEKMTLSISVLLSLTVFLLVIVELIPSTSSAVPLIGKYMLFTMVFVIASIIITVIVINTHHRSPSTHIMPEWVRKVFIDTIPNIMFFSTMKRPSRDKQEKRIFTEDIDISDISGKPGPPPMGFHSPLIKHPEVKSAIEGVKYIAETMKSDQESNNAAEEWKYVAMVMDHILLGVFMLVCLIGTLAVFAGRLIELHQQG
# T5 sequence (P09690 24-501 partner): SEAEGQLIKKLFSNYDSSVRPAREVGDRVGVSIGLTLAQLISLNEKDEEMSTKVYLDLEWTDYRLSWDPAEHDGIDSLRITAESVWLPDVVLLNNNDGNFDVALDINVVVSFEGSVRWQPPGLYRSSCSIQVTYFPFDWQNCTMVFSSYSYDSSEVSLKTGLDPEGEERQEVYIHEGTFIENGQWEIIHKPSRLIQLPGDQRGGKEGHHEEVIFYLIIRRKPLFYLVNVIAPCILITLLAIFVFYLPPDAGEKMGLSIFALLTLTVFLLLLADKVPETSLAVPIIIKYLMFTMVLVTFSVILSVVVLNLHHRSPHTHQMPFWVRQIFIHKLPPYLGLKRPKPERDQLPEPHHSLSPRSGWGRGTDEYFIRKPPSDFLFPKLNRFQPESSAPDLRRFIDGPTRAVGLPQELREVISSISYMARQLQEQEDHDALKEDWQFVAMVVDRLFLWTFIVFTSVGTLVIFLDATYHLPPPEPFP
# T5 sequence (P20782 21-493): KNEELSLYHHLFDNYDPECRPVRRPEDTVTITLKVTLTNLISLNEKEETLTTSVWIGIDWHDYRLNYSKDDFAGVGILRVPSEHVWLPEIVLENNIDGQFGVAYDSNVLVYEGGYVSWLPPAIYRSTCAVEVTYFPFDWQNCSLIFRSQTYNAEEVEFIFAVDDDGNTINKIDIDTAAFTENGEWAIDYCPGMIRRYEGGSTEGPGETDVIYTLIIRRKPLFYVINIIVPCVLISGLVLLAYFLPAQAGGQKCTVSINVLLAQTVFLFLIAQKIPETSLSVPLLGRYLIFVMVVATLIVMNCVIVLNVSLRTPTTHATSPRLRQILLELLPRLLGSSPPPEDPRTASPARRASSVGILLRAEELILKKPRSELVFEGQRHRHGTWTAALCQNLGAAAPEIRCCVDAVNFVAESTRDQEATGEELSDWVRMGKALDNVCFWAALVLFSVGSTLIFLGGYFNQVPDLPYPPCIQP
# T5 sequence (P02716 25-520): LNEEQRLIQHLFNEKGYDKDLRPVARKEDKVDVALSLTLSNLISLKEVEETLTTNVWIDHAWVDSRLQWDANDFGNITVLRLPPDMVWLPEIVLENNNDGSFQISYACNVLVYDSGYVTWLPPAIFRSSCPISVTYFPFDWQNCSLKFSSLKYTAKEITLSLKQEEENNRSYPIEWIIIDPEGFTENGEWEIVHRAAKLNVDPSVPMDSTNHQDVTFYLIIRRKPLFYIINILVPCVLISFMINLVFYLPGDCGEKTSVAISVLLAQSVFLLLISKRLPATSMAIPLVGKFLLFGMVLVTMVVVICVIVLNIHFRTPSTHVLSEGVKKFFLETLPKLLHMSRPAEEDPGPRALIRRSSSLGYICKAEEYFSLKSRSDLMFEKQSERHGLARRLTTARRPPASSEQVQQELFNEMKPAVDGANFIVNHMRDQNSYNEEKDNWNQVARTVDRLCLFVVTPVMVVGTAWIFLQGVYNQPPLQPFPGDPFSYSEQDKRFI
# Description: as §1
# Experiments were conducted using OpusXpress 6000A (Molecular Devices, Union City, CA, USA). […]
# Solutions were applied from 96-well plates via disposable tips. […] The responses were calculated as both peak current amplitudes and net charge, as previously described. Data were collected at 50 Hz, filtered at 20 Hz for α7 receptors or filtered at 5 Hz for heteromeric nAChR, and analyzed by Clampfit (Molecular Devices, San Jose, CA, USA) and Excel (Microsoft, Redmond, WA, USA). Data were expressed as means ± SEM from at least four oocytes for each experiment and plotted with Kaleidagraph 4.5.2 (Abelbeck Software, Reading, PA, USA). Multi-cell averages were calculated for comparisons of complex responses. […]
# [6] = peak currents relative to ACh maximum
smiles,measurement,setting,value
"C[S+](C)C.[I-] [Compound S1, trimethylsulfonium iodide]","average net-charge response, % of the control responses to 60 µM ACh","[1]; 100 µM compound applied alone, same cells",47 ± 6%
same,ability to activate α7 when applied alone,[1]; net charge,activated receptors
same,ability to activate α7 when applied alone,"[1]; net charge, listed as trimethylsulfonium",partial agonist
same,Imax,"[1]; net charge, n = 8, normalized to ACh maximum, Hill fit",84 ± 0.3 % ACh Imax
same,EC50,"[1]; α7, Hill fit, Table 2, unit printed in text b9 only, read-out: EC50 (S1 Activation)",98 ± 0.5 µM
same,IMax (S1 Activation),"[1]; α7, relative to ACh maximum, Hill fit, Table 2",0.84 ± 0.01
same,IMax (S1 Activation),[2]; [6],0.89 ± 0.44
same,EC50,"[2]; peak currents, unit inferred",1060 ± 1240 µM
same,IMax (S1 Activation),[3]; [6],1.2 ± 0.2
same,EC50,"[3]; peak currents, unit inferred",246 ± 104 µM
same,IMax (S1 Activation),[4]; [6],0.71 ± 0.35
same,EC50,"[4]; peak currents, unit inferred",333 ± 51 µM
same,activation of muscle-type receptors,[5],not an effective activator
